Measured values published in ChEMBL document CHEMBL5370549, “Optimization and evaluation of pyridinyl vinyl sulfones as Nrf2 activator for the antioxidant and anti-inflammatory effects” (Eur J Med Chem, 2023).
The source made the active and inactive calls. The calls are words filed in the database; no cut-off is given here.

What was measured:
[1] = system: Mus musculus; test: (§1) Antiinflammatory activity against LPS-induced neuroinflammation C57BL/6N mouse model assessed as reduction of glial cell reactivity by measuring reduction in GFAP expression in hippocampus CA3 region at 20 mg/kg/day, po administered for 3 days followed by LPS administration for 7 days by immunofluorescence staining based analysis; format: functional, organism-based; settings: time 10.0 day
[2] = system: Mus musculus; test: Antiinflammatory activity against LPS-induced neuroinflammation C57BL/6N mouse model assessed as inhibition of IL-6 production in plasma at 20 mg/kg/day, po administered for 3 days followed by LPS administration for 7 days by ELISA; format: functional, organism-based; settings: time 10.0 day
[3] = system: BV-2; test: Antiinflammatory activity against LPS-induced mouse BV-2 cells assessed as inhibition of iNOS protein expression pretreated for 6 hrs followed by LPS stimulation for 24 hrs by immunoblot analysis; format: functional, cell-based; settings: dose 0.001-1 µM, time 30.0 hrs
[4] = system: BV-2; test: Antiinflammatory activity against LPS-induced mouse BV-2 cells assessed as inhibition of IL-1 beta mRNA expression at 0.1 to 3 uM pretreated for 6 hrs followed by LPS stimulation for 6 hrs by qRT-PCR analysis; format: functional, cell-based; settings: dose 0.1-3 µM, time 12.0 hrs
[5] = system: Mus musculus; test: as §1, with “IBA1” for “GFAP”, “dentate gyrus” for “hippocampus CA3 region”; format: functional, organism-based; settings: time 10.0 day
[6] = molecular target: CYP3A4 (Homo sapiens, UniProt P08684); test: Inhibition of CYP3A4 (unknown origin) assessed as enzyme activity at 10 uM relative to control; format: ADME; parameters: scale not given: the % may be the effect or the level left; settings: read-out: Activity
[7] = molecular target: T1, Nuclear factor erythroid 2-related factor 2 (Mus musculus) (UniProt Q60795); test: Activation of Nrf2 in mouse BV-2 cells assessed as increase in Nrf2 nuclear translocation measured after 3 hrs by immunoblot analysis; format: subcellular; settings: Nucleus, filed as activator, dose 0.01-3 µM
T1 sequence (whole entry): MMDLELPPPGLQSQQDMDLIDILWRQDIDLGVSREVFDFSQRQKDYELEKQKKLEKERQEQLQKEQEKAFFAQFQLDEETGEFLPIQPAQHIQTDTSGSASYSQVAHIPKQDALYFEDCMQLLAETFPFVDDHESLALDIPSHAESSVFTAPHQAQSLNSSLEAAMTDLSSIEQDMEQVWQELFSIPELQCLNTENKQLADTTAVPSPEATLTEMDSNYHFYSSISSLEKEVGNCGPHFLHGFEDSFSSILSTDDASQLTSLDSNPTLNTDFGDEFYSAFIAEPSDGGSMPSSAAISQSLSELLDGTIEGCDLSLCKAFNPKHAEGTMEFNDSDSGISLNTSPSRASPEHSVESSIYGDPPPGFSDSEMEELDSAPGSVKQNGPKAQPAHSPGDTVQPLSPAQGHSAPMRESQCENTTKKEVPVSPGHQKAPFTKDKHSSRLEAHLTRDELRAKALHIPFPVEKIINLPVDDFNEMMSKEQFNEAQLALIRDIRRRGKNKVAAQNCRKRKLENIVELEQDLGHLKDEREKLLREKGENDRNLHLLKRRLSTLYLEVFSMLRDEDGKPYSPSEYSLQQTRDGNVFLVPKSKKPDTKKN

[8] = system: Mus musculus; test: Cognitive enhancing activity against LPS-induced neuroinflammation C57BL/6N mouse model assessed as […] memory improvement by measuring delayed step-through latency at 20 mg/kg/day, po administered for 3 days followed by LPS administration for 7 days by passive avoidance test; format: functional, organism-based; settings: time 10.0 day
[9] = molecular target: T1, Nuclear factor erythroid 2-related factor 2 (Mus musculus); test: Activation of Nrf2 in mouse BV-2 cells assessed as increase in Nrf2 nuclear translocation at 3 uM measured upto 9 hrs by immunoblot analysis relative to control; format: subcellular; settings: Nucleus
[10] = molecular target: CYP2C9 (Homo sapiens, UniProt P11712); test: Inhibition of CYP2C9 (unknown origin) assessed as enzyme activity at 10 uM relative to control; format: ADME; parameters: scale not given: the % may be the effect or the level left; settings: read-out: Activity
[11] = Metabolic stability of the compound in rat plasma assessed as parent compound remaining measured after 30 mins; format: ADME, cell-free; settings: read-out: Stability
[12] = molecular target: CYP2D6 (Homo sapiens, UniProt P10635); test: Inhibition of CYP2D6 (unknown origin) assessed as enzyme activity at 10 uM relative to control; format: ADME; parameters: scale not given: the % may be the effect or the level left; settings: read-out: Activity
[13] = molecular target: T1, Nuclear factor erythroid 2-related factor 2 (Mus musculus); test: Activation of Nrf2 in mouse BV-2 cells assessed as increase in HO-1 mRNA expression incubated for 3 hrs by qRT-PCR analysis; format: cell-based; settings: filed as activator, dose 0.01-3 µM
[14] = system: BV-2; test: Antiinflammatory activity against LPS-induced mouse BV-2 cells assessed as inhibition of NO production at 0.001 to 1 uM pretreated for 6 hrs followed by LPS stimulation for 24 hrs by Griess assay; format: functional, cell-based; settings: dose 0.001-1 µM, time 30.0 hrs
[15] = Metabolic stability of the compound in human plasma assessed as parent compound remaining measured after 30 mins; format: ADME, cell-free; settings: read-out: Stability
[16] = molecular target: T1, Nuclear factor erythroid 2-related factor 2 (Mus musculus); test: Activation of Nrf2 in mouse BV-2 cells assessed as increase in HO-1 protein expression at 3 uM measured after 24 hrs by immunoblot analysis; format: cell-based; settings: filed as activator
[17] = Metabolic stability of the compound in human liver microsomes assessed as parent compound remaining measured after 30 mins; format: ADME, Microsome; settings: read-out: Stability
[18] = system: BV-2; test: Cytotoxicity against mouse BV-2 cells assessed as effect on cell viability upto 3 uM incubated for 24 hrs by WST assay; format: toxicity, cell-based; settings: bv-2, 24 h
[19] = molecular target: T1, Nuclear factor erythroid 2-related factor 2 (Mus musculus); test: Activation of Nrf2 in mouse BV-2 cells assessed as increase in GCLM protein expression at 3 uM measured after 12 hrs by immunoblot analysis; format: cell-based; settings: filed as activator
[20] = molecular target: T1, Nuclear factor erythroid 2-related factor 2 (Mus musculus); test: Activation of Nrf2 in mouse BV-2 cells assessed as increase in GCLM protein expression at 3 uM measured after 48 hrs by immunoblot analysis; format: cell-based; settings: filed as activator
[21] = molecular target: CYP2C19 (Homo sapiens, UniProt P33261); test: Inhibition of CYP2C19 (unknown origin) assessed as enzyme activity at 10 uM relative to control; format: ADME; parameters: scale not given: the % may be the effect or the level left; settings: read-out: Activity
[22] = Toxicity against C57BL/6N mouse at 1000 mg/kg, po administered as single dose; format: organism-based; settings: in vivo
[23] = system: Mus musculus; test: as §1, with “IBA1” for “GFAP”, “cortex” for “hippocampus CA3 region”; format: functional, organism-based; settings: time 10.0 day
[24] = molecular target: T1, Nuclear factor erythroid 2-related factor 2 (Mus musculus); test: Activation of Nrf2 in mouse BV-2 cells assessed as increase in HO-1 protein expression at 3 uM measured after 9 hrs by immunoblot analysis; format: cell-based; settings: filed as activator
[25] = system: Mus musculus; test: Antiinflammatory activity against LPS-induced neuroinflammation C57BL/6N mouse model assessed as inhibition of TNF-alpha production in plasma at 20 mg/kg/day, po administered for 3 days followed by LPS administration for 7 days by ELISA; format: functional, organism-based; settings: time 10.0 day
[26] = system: Mus musculus; test: as §1, with “dentate gyrus” for “hippocampus CA3 region”; format: functional, organism-based; settings: time 10.0 day
[27] = system: BV-2; test: Antiinflammatory activity against LPS-induced mouse BV-2 cells assessed as inhibition of NOS2 mRNA expression at 0.1 to 3 uM pretreated for 6 hrs followed by LPS stimulation for 6 hrs by qRT-PCR analysis; format: functional, cell-based; settings: dose 0.1-3 µM, time 12.0 hrs
[28] = molecular target: T1, Nuclear factor erythroid 2-related factor 2 (Mus musculus); test: Activation of Nrf2 in mouse BV-2 cells assessed as increase in Nrf2 level in whole cell lysates at 3 uM measured after 48 hrs by immunoblot analysis; format: subcellular
[29] = system: Mus musculus; test: as §1, with “IBA1” for “GFAP”, “CA1” for “CA3”; format: functional, organism-based; settings: time 10.0 day

CYP2C19, sequence (P33261 whole entry): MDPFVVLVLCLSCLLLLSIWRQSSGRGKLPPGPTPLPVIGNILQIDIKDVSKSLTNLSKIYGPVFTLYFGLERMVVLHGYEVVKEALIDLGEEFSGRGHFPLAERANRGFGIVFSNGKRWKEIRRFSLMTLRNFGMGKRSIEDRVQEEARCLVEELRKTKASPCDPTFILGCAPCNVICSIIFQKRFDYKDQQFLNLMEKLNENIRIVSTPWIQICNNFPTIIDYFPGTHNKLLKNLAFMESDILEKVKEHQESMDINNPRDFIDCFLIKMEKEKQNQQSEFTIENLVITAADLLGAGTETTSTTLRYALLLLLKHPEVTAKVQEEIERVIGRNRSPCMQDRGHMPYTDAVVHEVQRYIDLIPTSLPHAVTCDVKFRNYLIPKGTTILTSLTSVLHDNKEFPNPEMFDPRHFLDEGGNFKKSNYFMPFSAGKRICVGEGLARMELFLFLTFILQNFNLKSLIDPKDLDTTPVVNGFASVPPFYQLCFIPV
CYP3A4, sequence (P08684 whole entry): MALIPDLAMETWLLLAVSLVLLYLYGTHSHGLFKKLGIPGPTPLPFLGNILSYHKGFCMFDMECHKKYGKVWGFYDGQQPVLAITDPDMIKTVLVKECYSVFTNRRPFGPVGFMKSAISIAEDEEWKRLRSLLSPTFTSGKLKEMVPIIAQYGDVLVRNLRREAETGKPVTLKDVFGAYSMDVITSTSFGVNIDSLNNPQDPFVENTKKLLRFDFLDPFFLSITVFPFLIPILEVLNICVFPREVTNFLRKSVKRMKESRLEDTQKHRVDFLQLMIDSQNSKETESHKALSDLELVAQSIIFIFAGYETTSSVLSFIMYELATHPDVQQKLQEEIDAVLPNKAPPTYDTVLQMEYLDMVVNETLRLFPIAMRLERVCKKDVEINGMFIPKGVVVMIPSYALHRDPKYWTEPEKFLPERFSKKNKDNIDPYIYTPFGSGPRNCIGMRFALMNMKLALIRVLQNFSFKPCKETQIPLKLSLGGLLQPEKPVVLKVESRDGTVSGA
CYP2C9, sequence (P11712 whole entry): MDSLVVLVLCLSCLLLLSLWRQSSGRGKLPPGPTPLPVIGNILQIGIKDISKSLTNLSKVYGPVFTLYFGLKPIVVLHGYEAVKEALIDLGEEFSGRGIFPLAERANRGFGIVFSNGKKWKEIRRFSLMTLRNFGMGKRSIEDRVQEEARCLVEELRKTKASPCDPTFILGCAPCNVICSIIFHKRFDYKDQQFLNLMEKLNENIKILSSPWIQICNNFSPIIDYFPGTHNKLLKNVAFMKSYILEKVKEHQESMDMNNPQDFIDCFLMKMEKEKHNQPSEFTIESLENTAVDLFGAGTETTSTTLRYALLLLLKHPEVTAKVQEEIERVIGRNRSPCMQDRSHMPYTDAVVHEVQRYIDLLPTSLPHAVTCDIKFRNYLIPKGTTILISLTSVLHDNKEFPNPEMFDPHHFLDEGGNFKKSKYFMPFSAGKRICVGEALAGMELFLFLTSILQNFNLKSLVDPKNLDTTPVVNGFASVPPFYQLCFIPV
CYP2D6, sequence (P10635 whole entry): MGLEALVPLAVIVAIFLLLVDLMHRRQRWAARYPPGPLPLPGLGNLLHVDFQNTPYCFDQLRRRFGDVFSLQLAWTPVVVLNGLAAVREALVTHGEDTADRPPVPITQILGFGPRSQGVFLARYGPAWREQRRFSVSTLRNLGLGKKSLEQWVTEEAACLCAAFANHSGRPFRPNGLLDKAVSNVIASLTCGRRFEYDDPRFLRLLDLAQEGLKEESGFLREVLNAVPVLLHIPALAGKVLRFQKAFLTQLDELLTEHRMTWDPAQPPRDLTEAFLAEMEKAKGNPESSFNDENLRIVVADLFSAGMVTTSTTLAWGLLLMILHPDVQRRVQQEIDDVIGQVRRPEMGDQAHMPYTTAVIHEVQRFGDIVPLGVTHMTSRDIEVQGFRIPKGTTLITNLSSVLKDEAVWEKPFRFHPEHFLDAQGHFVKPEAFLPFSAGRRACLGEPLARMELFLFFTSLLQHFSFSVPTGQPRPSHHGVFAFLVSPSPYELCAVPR

- activity at 10 µM [6]: 77.1%
- Activity [7]: Dose-Dependent Effect
- fold change (FC) [9]: > 7
- activity at 10 µM [10]: > 99%
- remaining at 0.5 h [11]: 74.4%
- activity at 10 µM [12]: > 99%
- Activity [13]: Dose-Dependent Effect
- remaining at 0.5 h [15]: 92.8%
- Activity [16]: Active
- remaining at 0.5 h [17]: 94.1%
- Activity [19]: Active
- Activity [20]: Active
- activity at 10 µM [21]: 74.7%
- Activity [24]: Active
- Activity [28]: inactive
SMILES: COc1cccnc1S(=O)(=O)/C=C/c1ncccc1Cl
- Activity [1]: Active
- Activity [2]: Active
- Activity [3]: Dose-Dependent Effect
- Activity [4]: Active
- Activity [5]: Active
- Activity [8]: Active
- Activity [14]: Active
- Activity [18]: Non-Toxic
- Activity [22]: Non-Toxic
- Activity [23]: Active
- Activity [25]: Active
- Activity [26]: Active
- Activity [27]: Active
- Activity [29]: Active
